Experimental data published in patent publication US20110200549A1, “Organic Compounds Suitable For Modulating Fragrance Compositions” (priority 2008, published 2011).

Legend:
CYP2A13 = molecular target: T1, CYP2A13 (Homo sapiens, UniProt Q16696); assay: CYP2A13 inhibition, coumarin 7-hydroxylation (Umbelliferone fluorescence) in microsomes; format: biochemical; conditions: recombinant CYP2A13 + P450 reductase microsomes, coumarin 0.006 mM, 60 min at 37° C.; read-out: CYP2A13 inhibitor activity IC50
T1 construct: made in house; host or cells: Sf9 insect cells, recombinant baculovirus
T1 sequence (Q16696 1-494): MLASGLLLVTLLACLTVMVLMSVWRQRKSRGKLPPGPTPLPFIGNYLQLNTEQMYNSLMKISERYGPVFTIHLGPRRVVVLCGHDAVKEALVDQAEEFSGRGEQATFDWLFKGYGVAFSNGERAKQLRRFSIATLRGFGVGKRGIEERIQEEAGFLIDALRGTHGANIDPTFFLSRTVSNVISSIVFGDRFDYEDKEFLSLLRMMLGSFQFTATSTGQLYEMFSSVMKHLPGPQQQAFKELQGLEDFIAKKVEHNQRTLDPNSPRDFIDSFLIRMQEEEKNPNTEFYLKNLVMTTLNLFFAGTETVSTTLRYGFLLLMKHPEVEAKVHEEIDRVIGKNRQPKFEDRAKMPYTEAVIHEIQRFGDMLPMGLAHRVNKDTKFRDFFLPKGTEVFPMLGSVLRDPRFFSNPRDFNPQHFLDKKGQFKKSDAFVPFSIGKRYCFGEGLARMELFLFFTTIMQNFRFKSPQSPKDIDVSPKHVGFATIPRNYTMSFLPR
Description: Compounds that inhibit the activity of CYP2A13 are identified by using a standard reaction established for the enzyme. A known substrate is coumarin, and the product of the enzymatic reaction is 7-hydroxy-coumarin (Umbelliferone) which is strongly fluorescent. When a compound is added to the standard reaction and the formation of Umbelliferone is decreased, the compound is identified as an inhibitor, which can also be a competitive substrate of the enzyme. The compound is used at various concentrations and the concentration-dependent decrease in Umbelliferone formation allows to determine the concentration where the activity of the enzyme is reduced to the 50% level (IC50 value).
A test compound (details see Table 1) was incubated with CYP2A13 in the presence of a cytochrome P450 reductase. CYP2A13 and P450 reductase were employed in form of microsomes. CYP2A13 was produced in Sf9 cells using a recombinant baculovirus, under conditions known to the person skilled in the art, for example, as described in WO 2006/007751. P450 reductase is commercially available (BD Biosciences Gentest, USA). Preferably, the two enzymes are coexpressed in the same insect cells and microsomes prepared which contain both enzymes. The art of coexpression of two enzymes is known, and the coexpression CYP2A13 and P450 reductase is described in WO 2006/007751. […] An MOI of 4 for recombinant CYP2A13 baculovirus combined with an MOI of 3.5 for recombinant P450 reductase baculovirus routinely produced microsomes with considerable activity.
Microsomes were used which contained 7 pmoles CYP2A13. Tris buffer (1 M, pH 7.6) and water were added to give a buffer concentration of 0.1M. The test compound was prepared as a 50 mM stock solution in acetonitrile. The concentration of the standard substrate coumarin was 0.006 mM. Several samples of the test compound were prepared at various concentrations to give different final concentrations in the reaction: 0, 0.005, 0.01, 0.02, 0.05, 0.1 and 0.2 mM. The mixture was incubated for 10 min at 37° C. prior to the initiation of the enzymatic reaction by the addition of 0.005 ml of a solution of 50 mM NADPH in water. The final total volume was 0.2 ml, which is suitable for microtiter plate measurements. The samples were incubated for 60 min at 37° C. After 60 min, the enzymatic reaction was stopped by the addition of 0.02 ml cold 50% trichloroacetic acid (TCA) and incubated at 4° C. for 15 min. 0.005 ml of a solution of 50 mM NADPH in water was added to the control reaction which corresponds to the reaction without test compound and without NADPH, and as a consequence, no Umbelliferone was formed. Denatured proteins and other insoluble parts were separated by centrifugation (10 min, 560×g, room-temperature).
The samples were analysed spectrofluorometrically which allows to detect the formation of Umbelliferone as the enzymatic product of coumarin at an excitation wavelength of 340 nm and an emission wavelength of 480 nm.

CYP2B6 = molecular target: T2, CYP2B6 (Homo sapiens, UniProt P20813); assay: CYP2B6 inhibition, 7-ethoxy-4-trifluoromethyl-coumarin fluorescence assay in microsomes; format: biochemical; conditions: CYP2B6 + P450 reductase microsomes, 7-ethoxy-4-trifluoromethyl-coumarin 6 μM, 40 min at 37° C.; read-out: CYP2B6 inhibitor activity IC50
T2 construct: made in house; host or cells: Sf9 insect cells, recombinant baculoviruses, coexpressed with P450 reductase
T2 sequence (P20813 1-491): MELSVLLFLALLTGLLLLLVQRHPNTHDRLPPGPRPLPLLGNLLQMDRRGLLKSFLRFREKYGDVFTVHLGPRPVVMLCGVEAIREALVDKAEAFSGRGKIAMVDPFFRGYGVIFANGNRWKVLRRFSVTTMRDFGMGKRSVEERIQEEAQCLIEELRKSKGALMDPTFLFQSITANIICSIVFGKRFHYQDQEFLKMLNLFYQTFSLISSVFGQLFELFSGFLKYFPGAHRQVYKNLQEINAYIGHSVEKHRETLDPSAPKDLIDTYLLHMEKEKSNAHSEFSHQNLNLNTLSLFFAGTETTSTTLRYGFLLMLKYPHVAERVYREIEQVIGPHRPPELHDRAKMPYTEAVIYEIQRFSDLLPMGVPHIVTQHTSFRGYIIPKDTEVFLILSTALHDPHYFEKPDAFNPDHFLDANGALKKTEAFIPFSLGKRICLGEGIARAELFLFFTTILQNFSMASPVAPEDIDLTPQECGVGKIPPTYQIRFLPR
Description: Test compounds that inhibit the activity of CYP2B6 are identified by using the same principle as described in Example 42, first paragraph.
A test compound (details see Table 2) was incubated with CYP2B6 in the presence of a cytochrome P450 reductase. CYP2B6 and P450 reductase are produced using recombinant baculoviruses and co-expressing the two proteins in Sf9 insect cells as described in Example 42. Alternatively, microsomes containing CYP2B6 and the reductase are commercially available (BD Biosciences Gentest, USA). Microsomes were used which contained 1.5 pmoles CYP2B6. Potassium phosphate buffer final concentration was 100 mM, (1M stock, pH 7.4). The test compound was prepared as a 50 mM stock solution in acetonitrile. The concentration of the standard substrate 7-ethoxy-4-trifluoromethyl-coumarin was 6 μM. Several samples of the test compound were prepared at various concentrations to give different final concentrations in the reaction: 0, 0.005, 0.01, 0.02, 0.05, 0.1 and 0.2 mM. […] The final total volume was 0.2 ml, which is suitable for microtiter plate measurements. The samples were incubated for 40 min at 37° C. After 40 min, the enzymatic reaction was stopped by the addition of […] 0.5M Tris-base/acetonitrile (18:72). 0.005 ml of a solution of 50 mM NADPH in water was added to the control reaction which corresponds to the reaction with test compound and enzyme but without NADPH, and as a consequence, no 4-trifluoromethyl-umbelliferone was formed. Denatured proteins and other insoluble parts were separated by centrifugation (5 min, 1800 rpm, at 10° C.).
The samples were analysed spectrofluorometrically which allows to detect the formation of 4-trifluoromethyl-umbelliferone as the enzymatic product at an excitation wavelength of 410 nm and an emission wavelength of 510 nm.

[1] = Sensory panel study with olfactometer (Virtual Aroma Synthesizer): modulation of a fragrance accord by the inhibitor; parameters: species or system human; conditions: 10-ingredient fragrance accord with vs without inhibitor, random order, panelists
Description: For each panelist, the inhibitor was tested by itself and confirmed that it was rated as being odorless at the given concentration.
Sensory studies are performed using an olfactometer, such as the Virtual Aroma Synthesizer (VAS) which is described in Chimia (2001) 55:401-405. The instrument allows to combine saturated headspace of different samples from different containers at various dilutions in order to determine the effect on the odor of the mixture produced in headspace. For the particular example, in one container the fragrance accord (1 gram) was adsorbed on beads (4 grams) and in another container the inhibitor N-(cyclopropylmethyl)-N-pentylacetamide was adsorbed on beads (4 grams).
Panelists were selected having different levels of experience and expertise in smelling, rating, describing and evaluating odorants, accords and perfumes. Panelists smelled the accord with or without the inhibitor at random order, not knowing which one was presented. Before and after the session, it was confirmed that the inhibitor alone was odorless.

## CCCCC/C(=C\c1ccccc1)C(=O)NC [Ex. 37, (E)-2-benzylidene-N-methylheptanamide]
CYP2A13
  IC50: 0.5 µM

## CCCCCN(CCc1cccnc1)C(C)=O [Ex. 18, N-pentyl-N-(2-(pyridin-3-yl)ethyl)acetamide]
CYP2A13
  IC50: 25 µM

## CC(=O)N(CCc1ccccc1)Cc1ccccc1 [Ex. 35, N-benzyl-N-phenethylacetamide]
CYP2A13
  IC50: 52 µM

## CCCCCN(Cc1cccnc1)C(C)=O [Ex. 4, N-pentyl-N-(pyridin-3-ylmethyl)acetamide]
CYP2A13
  IC50: 15 µM

## CCCCCN(Cc1ccccc1)C(C)=O [Ex. 1, N-benzyl-N-pentylacetamide]
CYP2B6
  IC50: 72 µM
CYP2A13
  IC50: 0.3 µM

## CCCCCN(CCc1ccncc1)C(C)=O [Ex. 20, N-pentyl-N-(2-(pyridin-4-yl)ethyl)acetamide]
CYP2B6
  IC50: 19 µM
CYP2A13
  IC50: 13 µM

## CCCCCN(CCc1ccccc1)C(C)=O [Ex. 3, N-pentyl-N-phenethylacetamide]
CYP2B6
  IC50: 93 µM
CYP2A13
  IC50: 2 µM

## CCCCCN(CCc1ccccn1)C(=O)OC [Ex. 17, methyl pentyl(2-(pyridin-2-yl)ethyl)carbamate]
CYP2A13
  IC50: 44 µM

## CCCCCN(CCc1c[nH]cn1)C(C)=O [Ex. 27, N-(2-(1H-imidazol-4-yl)ethyl)-N-pentylacetamide]
CYP2B6
  IC50: 2.5 µM
CYP2A13
  IC50: 34 µM

## CCCCCN(CC1CC1)C(=O)OC [Ex. 11, methyl cyclopropylmethyl(pentyl)carbamate]
CYP2B6
  IC50: 28 µM
CYP2A13
  IC50: 3 µM

## CCCCC/C(=C\C1CC1)C(=O)NC [Ex. 38, (E)-2-(cyclopropylmethylene)-N-methylheptanamide]
CYP2A13
  IC50: 0.8 µM

## CCCCCN(Cc1ccncc1)C(=O)OC [Ex. 9, methyl pentyl(pyridin-4-ylmethyl)carbamate]
CYP2A13
  IC50: 17 µM

## CCCCCN(Cc1ccccc1)C(=O)OC [Ex. 29, methyl benzyl(pentyl)carbamate]
CYP2B6
  IC50: 20 µM
CYP2A13
  IC50: 1.6 µM

## CCCCCN(Cc1cccnc1)C(=O)OC [Ex. 5, methyl pentyl(pyridin-3-ylmethyl)carbamate]
CYP2A13
  IC50: 22 µM

## CCCCCN(C(C)=O)C(=O)OC(C)(C)C [Ex. 34, tert-butyl acetyl(pentyl)carbamate]
CYP2B6
  IC50: 11 µM
CYP2A13
  IC50: 1.5 µM

## CCCCC/C(=C\C1CC1)C(=O)N(C)C [Ex. 40, (E)-2-(cyclopropylmethylene)-N,N-dimethylheptanamide]
CYP2A13
  IC50: 9 µM

## CCCCCN(Cc1ccccn1)C(=O)OC [Ex. 23, methyl pentyl(pyridin-2-ylmethyl)carbamate]
CYP2A13
  IC50: 20 µM

## CCCCCN(C(C)=O)C(=O)C1CC1 [Ex. 33, N-acetyl-N-pentylcyclopropanecarboxamide]
CYP2B6
  IC50: 17 µM
CYP2A13
  IC50: 0.7 µM

## CCCCC/C(=C\C1CC1)C(N)=O [Ex. 41, (E)-2-(cyclopropylmethylene)heptanamide]
CYP2A13
  IC50: 1.1 µM

## CCCCCN(Cc1ccccn1)C(C)=O [Ex. 22, N-pentyl-N-(pyridin-2-ylmethyl)acetamide]
CYP2A13
  IC50: 10 µM

## CCCCCN(CCc1ccncc1)C(=O)OC [Ex. 21, methyl pentyl(2-(pyridin-4-yl)ethyl)carbamate]
CYP2A13
  IC50: 2 µM

## CCCCC/C(=C\c1ccccc1)C(=O)N(C)C [Ex. 39, (E)-2-benzylidene-N,N-dimethylheptanamide]
CYP2A13
  IC50: 3 µM

## CCCCCN(C=O)CC1CC1 [Ex. 36, N-(cyclopropylmethyl)-N-pentylformamide]
CYP2B6
  IC50: 49 µM
CYP2A13
  IC50: 1.3 µM

## CCCCCN(Cc1ccncc1)C(C)=O [Ex. 8, N-pentyl-N-(pyridin-4-ylmethyl)acetamide]
CYP2A13
  IC50: 11 µM

## CCCCCN(CCc1c[nH]cn1)C(=O)OC [Ex. 28, methyl 2-(1H-imidazol-4-yl)ethyl(pentyl)carbamate]
CYP2A13
  IC50: 47 µM

## CCCCCN(CCc1cccnc1)C(=O)OC [Ex. 19, methyl pentyl(2-(pyridin-3-yl)ethyl)carbamate]
CYP2A13
  IC50: 41 µM

## CCCCN(Cc1ccccc1)C(C)=O [Ex. 6, N-benzyl-N-butylacetamide]
CYP2A13
  IC50: 8 µM

## CCCCCN(C(C)=O)c1ccccc1 [Ex. 2, N-pentyl-N-phenylacetamide]
CYP2B6
  IC50: 46 µM
CYP2A13
  IC50: 0.5 µM

## CCCCCN(CC1CC1)C(C)=O [Ex. 10, N-(cyclopropylmethyl)-N-pentylacetamide]
[1]
  Effect on the odor of the fragrance accord attributed to the presence of the inhibitor: intensifying or boosting the fruitiness of the accord
CYP2B6
  IC50: 87 µM
CYP2A13
  IC50: 0.5 µM

## CCCCCN(CCc1ccccn1)C(C)=O [Ex. 16, N-pentyl-N-(2-(pyridin-2-yl)ethyl)acetamide]
CYP2A13
  IC50: 24 µM
